Laboratory results as given in US12043599B2, “Herbicidal compounds” (SYNGENTA PARTICIPATIONS AG, priority 2018, dated 2024).

How the values were obtained:
Format in all cases: in vivo
Conditions in all cases: 250 g/h, evaluated after 13 days
[1] = system: Setaria faberi (SETFA); assay: Pre-emergence herbicidal glasshouse test, percentage damage
Summary of the method: (§1)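 Pots of the weeds sprayed either 1 day after sowing (pre-emergence) or after 8 days' growth (post-emergence), at 250 g/h in acetone/water with 0.5% Tween 20. Grown in a glasshouse at 24/16° C. day/night with 14 h light and 65% humidity. Damage scored 13 days later on a 1–5 scale (5=80-100%, 1=0-19%).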

[2] = system: Lolium perenne (LOLPE); assay: as above
Summary of the method: as §1

[3] = system: Avena fatua (AVEFA); assay: as above
Summary of the method: as §1

[4] = system: Alopecurus myosuroides (ALOMY); assay: as above
Summary of the method: as §1

[5] = system: Echinochloa crus-galli (ECHCG); assay: as above
Summary of the method: as §1

[6] = system: Setaria faberi (SETFA); assay: Post-emergence herbicidal glasshouse test, percentage damage
Summary of the method: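 Wheat, barley and Setaria faberi were sprayed post-emergence after 8 days' growth (24/16 °C, 14 h light, 65% humidity) with compound in acetone/water (50:50) containing 0.5% Tween 20, at the indicated rates. On wheat, compounds were also applied with cloquintocet-mexyl at 50 g/ha. Damage was scored after 13 days on a five-point scale (5=80-100% to 1=0-19%).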

[7] = system: Lolium perenne (LOLPE); assay: as above
Summary of the method: as §1

[8] = system: Avena fatua (AVEFA); assay: as above
Summary of the method: as §1

[9] = system: Alopecurus myosuroides (ALOMY); assay: as above
Summary of the method: as §1

Compound | SETFA PRE percentage damage (five point scale) [1] | LOLPE PRE percentage damage (five point scale) [2] | AVEFA PRE percentage damage (five point scale) [3] | ALOMY PRE percentage damage (five point scale) [4] | ECHCG PRE percentage damage (five point scale) [5] | SETFA POST percentage damage (five point scale) [6] | LOLPE POST percentage damage (five point scale) [7] | AVEFA POST percentage damage (five point scale) [8] | ALOMY POST percentage damage (five point scale) [9]
CC#Cc1cc(C)c(C2C(=O)CC3(CCN(C(=O)c4ccc(C#N)cn4)CC3)CC2=O)c(C)c1 [Compound A20] | 5 (5=80-100%) | 5 (5=80-100%) | 5 (5=80-100%) | 5 (5=80-100%) | 5 (5=80-100%) | 5 (5=80-100%) | 5 (5=80-100%) | 5 (5=80-100%) | 5 (5=80-100%)
CC#Cc1cc(C)c(C2C(=O)CC3(CCN(S(=O)(=O)c4cccnc4)CC3)CC2=O)c(C)c1 [Compound A98] | 3 (3=40-59%) | 5 (5=80-100%) | 5 (5=80-100%) | 4 (4=60-79%) | 4 (4=60-79%) | 5 (5=80-100%) | 5 (5=80-100%) | 5 (5=80-100%) | 5 (5=80-100%)
CC#Cc1cc(C)c(C2=C(OC(=O)OC)CC3(CCN(C(=O)C4(C#N)CC4)CC3)CC2=O)c(C)c1 [Compound P33] | 5 (5=80-100%) | 5 (5=80-100%) | 5 (5=80-100%) | 5 (5=80-100%) | 5 (5=80-100%) | 5 (5=80-100%) | 5 (5=80-100%) | 5 (5=80-100%) | 5 (5=80-100%)
CC#Cc1cc(C)c(C2=C(OC(=O)OC)CC3(CCN(C(=O)c4ncccn4)CC3)CC2=O)c(C)c1 [Compound P22] | 5 (5=80-100%) | 5 (5=80-100%) | 5 (5=80-100%) | 5 (5=80-100%) | 5 (5=80-100%) | 5 (5=80-100%) | 5 (5=80-100%) | 5 (5=80-100%) | 5 (5=80-100%)
CC#Cc1cc(C)c(C2=C(O)CC3(CCN(C=O)CC3)CC2=O)c(C)c1 [Compound A96] | 5 (5=80-100%) | 5 (5=80-100%) | 5 (5=80-100%) | 5 (5=80-100%) | 5 (5=80-100%) | 5 (5=80-100%) | 5 (5=80-100%) | 5 (5=80-100%) | 5 (5=80-100%)
CC#Cc1cc(C)c(C2=C(OC(=O)OC)CC3(CCN(C(=O)C(C)OC)CC3)CC2=O)c(C)c1 (stereo not drawn) [Compound P32] | 5 (5=80-100%) | 5 (5=80-100%) | 5 (5=80-100%) | 5 (5=80-100%) | 5 (5=80-100%) | 5 (5=80-100%) | 5 (5=80-100%) | 5 (5=80-100%) | 5 (5=80-100%)
CC#Cc1cc(C)c(C2=C(OC(=O)OC)CC3(CCN(C(=O)C(C)(C)OC)CC3)CC2=O)c(C)c1 [Compound P26] | 5 (5=80-100%) | 5 (5=80-100%) | 5 (5=80-100%) | 5 (5=80-100%) | 5 (5=80-100%) | 5 (5=80-100%) | 5 (5=80-100%) | 5 (5=80-100%) | 5 (5=80-100%)
CC#Cc1cc(C)c(C2C(=O)CC3(CCN(S(=O)(=O)c4ccccc4F)CC3)CC2=O)c(C)c1 [Compound A17] | 5 (5=80-100%) | 5 (5=80-100%) | 5 (5=80-100%) | 5 (5=80-100%) | 5 (5=80-100%) | 5 (5=80-100%) | 5 (5=80-100%) | 5 (5=80-100%) | 5 (5=80-100%)
CC#Cc1cc(C)c(C2C(=O)CC3(CCN(C(=O)c4cccnn4)CC3)CC2=O)c(C)c1 [Compound A21] | 3 (3=40-59%) | 5 (5=80-100%) | 5 (5=80-100%) | 5 (5=80-100%) | 2 (2=20-39%) | 5 (5=80-100%) | 5 (5=80-100%) | 5 (5=80-100%) | 5 (5=80-100%)
CC#Cc1cc(C)c(C2C(=O)CC3(CCN(S(=O)(=O)Cc4ccon4)CC3)CC2=O)c(C)c1 [Compound A97] | 5 (5=80-100%) | 5 (5=80-100%) | 5 (5=80-100%) | 4 (4=60-79%) | 5 (5=80-100%) | 5 (5=80-100%) | 5 (5=80-100%) | 5 (5=80-100%) | 5 (5=80-100%)
CC#Cc1cc(C)c(C2=C(OC(=O)c3ncccn3)CC3(CCN(C(=O)c4ncccn4)CC3)CC2=O)c(C)c1 [Compound P23] | 5 (5=80-100%) | 5 (5=80-100%) | 4 (4=60-79%) | 5 (5=80-100%) | 5 (5=80-100%) | 5 (5=80-100%) | 5 (5=80-100%) | 5 (5=80-100%) | 5 (5=80-100%)
CC#Cc1cc(C)c(C2=C(OC(=O)OC)CC3(CCN(C(=O)C(C)O)CC3)CC2=O)c(C)c1 (stereo not drawn) [Compound P31] | 5 (5=80-100%) | 5 (5=80-100%) | 5 (5=80-100%) | 5 (5=80-100%) | 5 (5=80-100%) | 5 (5=80-100%) | 5 (5=80-100%) | 5 (5=80-100%) | 5 (5=80-100%)
